Experimental data as given in patent US10076519B2 (CYTOKINETICS, INC., priority 2010, dated 2018).

System: rabbit skeletal myofibrils (fast skeletal myofibrils)
Assay: Activation of fast skeletal myofibrils (PUMA assay, PK/LDH-coupled ATPase at pCa25)
Assay type: biochemical
Settings: AC1.4 determined according to the procedure of Example 39; reported as class symbols
How it was run: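 ATPase activity of Triton-washed rabbit skeletal myofibrils, roughly 90% fast fibres, tracked by NADH loss at 340 nm through a PK/LDH-coupled ADP-regenerating system. Calcium set to 25% of maximal activity (pCa25), in PIPES 12 mM pH 6.8 with 2 mM MgCl2 and 1 mM DTT; AC1.4 reported.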

SMILES | Mean AC1.4
CC(C)Cc1ccc(NCC(C)(C)c2ccc(F)cc2)nn1 [[2-(4-fluorophenyl)-2-methylpropyl][6-(2-methylpropyl)pyridazin-3-yl]amine] | B (B=1-10 uM)
CC(C)(CNc1ccc(-c2cccc(C(=O)NCCO)c2)nn1)c1ccc(F)cc1 [[3-(6-{[2-(4-fluorophenyl)-2-methylpropyl]amino}pyridazin-3-yl)phenyl]-N-(2-hydroxyethyl)carboxamide] | B (B=1-10 uM)
CC(C)(C)OC(=O)N1CCN(C(=O)c2cccc(-c3ccc(NCC(C)(C)c4ccc(F)cc4)nn3)c2)CC1 [tert-butyl 4-{[3-(6-{[2-(4-fluorophenyl)-2-methylpropyl]amino}pyridazin-3-yl)phenyl]carbonyl}piperazine-carboxylate] | B (B=1-10 uM)
COc1cccnc1C1(CNc2ccc(-c3ccc4[nH]ncc4c3)nn2)CCC1 [(6-(1H-indazol-5-yl)pyridazin-3-yl){[(3-methoxy(2-pyridyl))cyclobutyl]methyl}amine] | B (B=1-10 uM)
COC(=O)NCc1ccc(-c2ccc(NCC(C)(C)c3ccc(F)cc3)nn2)cn1 | C (C=10-20 uM)
CC(CNc1ccc(-c2cccc(C(N)=O)c2)nn1)c1ccccc1F (stereo not shown) | B (B=1-10 uM)
OCC1(CNc2ccc(-c3ccc4[nH]ncc4c3)nn2)CCC1 [({[(6-(1H-indazol-5-yl)pyridazin-3-yl)amino]methyl}cyclobut-yl)methan-1-ol] | D (D=>20 uM)
CC(C)(CNc1ccc(-c2ccc(C(=O)c3ccccc3)cc2)nn1)c1ccc(F)cc1 [4-(6-{[2-(4-fluorophenyl)-2-methylpropyl]amino}pyridazin-3-yl)phenyl phenyl ketone] | D (D=>20 uM)
CC(C)(CNc1ccc(-c2cccc(C(N)=O)c2)nn1)c1cccc(F)c1 [3-(6-{[2-(3-fluorophenyl)-2-methylpropyl]amino}pyridazin-3-yl)benzamide] | A (A=<1 uM)
CC(CNc1ccc(-c2ccc3[nH]nc(N)c3c2)nn1)N1CCCCC1 (stereo not shown) [[6-(3-amino(1H-indazol-5-yl))pyridazin-3-yl](2-piperidylpropyl)amine] | D (D=>20 uM)
NC(=O)c1cccc(-c2ccc(NCC3(c4ncccc4F)CCC3)nn2)c1 | A (A=<1 uM)
CC(C)(CNc1ccc(-c2ccc3[nH]nc(N)c3c2)nn1)c1ncc(F)cc1F [[6-(3-amino(1H-indazol-5-yl))pyridazin-3-yl][2-(3,5-difluoro(2-pyridyl))-2-methylpropyl]amine] | A (A=<1 uM)
CC(C)(CNc1ccc(C(=O)N[C@H]2CCC[C@H]2C(N)=O)nn1)c1ccc(F)cc1 (stereo in doubt) [(2S,1R)-2-[(6-{[2-(4-fluorophenyl)-2-methylpropyl]amino}pyridazin-3-yl)carbonylamino]cyclopentane-carboxamide] | D (D=>20 uM)
Oc1cccc(C2(CNc3ccc(-c4ccc5[nH]ncc5c4)nn3)CCC2)n1 [6-({[(6-(1H-indazol-5-yl)pyridazin-3-yl)amino]methyl}cyclobutyl) pyridin-2-ol] | D (D=>20 uM)
CS(=O)(=O)Nc1n[nH]c2ccc(-c3ccc(NCC4(c5ncccc5F)CCC4)nn3)cc12 | A (A=<1 uM)
CC(C)(CNc1ccc(-c2ccc3[nH]ncc3c2)nn1)c1ccc(F)cc1 [(6-(1H-indazol-5-yl)pyridazin-3-yl)[2-(4-fluorophenyl)-2-methylpropyl]amine] | A (A=<1 uM)
CC(C)(CNc1ccc(-c2ccc(C(N)=O)nc2)nn1)c1ccc(F)cc1 [5-(6-{[2-(4-fluorophenyl)-2-methylpropyl]amino}pyridazin-3-yl)pyridine-2-carboxamide] | B (B=1-10 uM)
CC(=O)Nc1n[nH]c2ccc(-c3ccc(NCC(C)(C)c4ccc(F)cc4)nn3)cc12 [N-[5-(6-{[2-(4-fluorophenyl)-2-methylpropyl]amino}pyridazin-3-yl)-1H-indazol-3-yl]acetamide] | A (A=<1 uM)
CC(C)(CNc1ccc(-c2ccc(CN)nc2)nn1)c1ccc(F)cc1 [{6-[6-(aminomethyl)(3-pyridyl)]pyridazin-3-yl}[2-(4-fluorophenyl)-2-methylpropyl]amine] | B (B=1-10 uM)
CC(C)(CNc1ccc(-c2ccc3[nH]nc(N)c3c2)nn1)c1cccc(CO)c1 | B (B=1-10 uM)
NC(=O)c1cccc(-c2ccc(NCCc3ccccc3)nn2)c1 [3-{6-[(2-phenylethyl)amino]pyridazin-3-yl}benzamide] | D (D=>20 uM)
CC(C)(O)c1cccc(C(C)(C)CNc2ccc(-c3ccc4[nH]nc(N)c4c3)nn2)c1 | C (C=10-20 uM)
Cc1ccccc1C(C)(C)CNc1ccc(-c2ccc3[nH]nc(N)c3c2)nn1 [[6-(3-amino(1H-indazol-5-yl))pyridazin-3-yl][2-methyl-2-(2-methylphenyl)propyl]amine] | A (A=<1 uM)
CN(C)CCc1cccc(C(C)(C)CNc2ccc(-c3ccc4[nH]nc(N)c4c3)nn2)c1 | D (D=>20 uM)
CC(C)(CNc1ccc(-c2ccc(C(N)=O)cc2)nn1)c1ccc(F)cc1 [4-(6-{[2-(4-fluorophenyl)-2-methylpropyl]amino}pyridazin-3-yl)benzamide] | B (B=1-10 uM)

Same assay, conditions: median AC1.4 class, procedure of Example 39

SMILES | Mean AC1.4
NC(=O)c1nc(-c2ccc(NCC3(c4ncccc4F)CCC3)nn2)c[nH]1 | C (C=10-20 uM)
CC(C)(O)c1ncccc1-c1ccc(NCC2(c3ncccc3F)CCC2)nn1 | D (D=>20 uM)
CC(C)NC(=O)c1cnc(-c2ccc(NCC3(c4ncccc4F)CCC3)nn2)s1 [{2-[6-({[(3-fluoro(2-pyridyl))cyclobutyl]methyl}ami-no)pyridazin-3-yl](1,3-thiazol-5-yl)}-N-(methylethyl)carboxamide] | B (B=1-10 uM)
CC(C)(CNc1ccc(-c2cccc(-c3nn[nH]n3)c2)nn1)c1ncccc1F [[6-(3-(2H-1,2,3,4-tetraazol-5-yl)phenyl)pyridazin-3-yl][2-(3-fluoro(2-pyridyl))-2-methylpropyl]amine] | B (B=1-10 uM)
O=C(CO)NCc1cnc(-c2ccc(NCC3(c4ncccc4F)CCC3)nn2)s1 [N-({2-[6-({[(3-fluoro(2-pyridyl))cyclobutyl]methyl}ami-no)pyridazin-3-yl](1,3-thiazol-5-yl)}methyl)-2-hydroxyacetamide] | A (A=<1 uM)
NC(=O)N1CC(c2ccc(NCC3(c4ncccc4F)CCC3)nn2)C1 | D (D=>20 uM)
Fc1ccc(C2(Nc3ccc(-c4cn[nH]c4)nn3)CCC2)cc1 [[(4-fluorophenyl)cyclobutyl](6-pyrazol-4-ylpyridazin-3-yl)amine] | B (B=1-10 uM)
NC(=O)c1cccc(-c2ccc(NC3(c4ccc(Cl)cc4)CCC3)nn2)c1 | B (B=1-10 uM)
Fc1cccnc1C1(CNc2ccc(-c3nccs3)nn2)CCC1 [{[(3-fluoro(2-pyridyl))cyclobutyl]methyl}(6-(1,3-thiazol-2-yl)pyridazin-3-yl)amine] | B (B=1-10 uM)
CC(C)(CNc1ccc(-c2ccc3[nH]nc(NCCO)c3c2)nn1)c1ccc(F)cc1 [2-{[5-(6-{[2-(4-fluorophenyl)-2-methylpropyl]amino}pyridazin-3-yl)-1H-indazol-3-yl]amino}ethan-1-ol] | A (A=<1 uM)
NC(=O)c1cccc(-c2ccc(NC3(c4ncccc4OC(F)F)CCC3)nn2)c1 | D (D=>20 uM)
Cc1nc(-c2ccc(NCC3(c4ncccc4F)CCC3)nn2)sc1C(N)=O [2-[6-({[(3-fluoro(2-pyridyl))cyclobutyl]methyl}ami-no)pyridazin-3-yl]-4-methyl-1,3-thiazole-5-carboxamide] | B (B=1-10 uM)

Same assay, conditions: median AC1.4 reported as class; procedure of Example 39

SMILES | Mean AC1.4
O=C(O)c1ccc(NCC2(c3ncccc3F)CCC2)nn1 [6-({[(3-fluoro-2-pyridyl)cyclobutyl]methyl}ami-no)pyridazine-3-carboxylic acid] | D (D=>20 uM)
COc1ncc(-c2ccc(NC[C@]3(c4ncccc4F)C[C@H](F)C3)nn2)cc1C [{[3-fluoro-1-(3-fluoro(2-pyridyl))cyclobutyl]methyl}[6-(6-methoxy-5-methyl(3-pyridyl))pyridazin-3-yl]amine] | D (D=>20 uM)
CNc1ccc(-c2ccc(NC[C@]3(c4ncccc4F)C[C@H](F)C3)nn2)cc1C(=O)OC [methyl 5-[6-({[3-fluoro-1-(3-fluoro(2-pyridyl))cyclobutyl]methyl}ami-no)pyridazin-3-yl]-2-(methylamino)benzoate] | B (B=1-10 uM)
NC(=O)CCc1cnc(-c2ccc(NCC3(c4ncccc4F)CCC3)nn2)s1 [3-{2-[6-({[(3-fluoro-2-pyridyl)cyclobutyl]methyl}ami-no)pyridazin-3-yl]-1,3-thiazol-5-yl}propanamide] | B (B=1-10 uM)
Fc1cccnc1C1(CNc2ccc(-c3nc4c(s3)CNCC4)nn2)CCC1 [{[(3-fluoro(2-pyridyl))cyclobutyl]methyl}(6-(4,5,6,7-tetrahydro-1,3-thiazolo[5,4-c]pyridin-2-yl)pyridazin-3-yl)amine] | D (D=>20 uM)
COc1c(C(N)=O)cccc1-c1ccc(NC[C@]2(c3ncccc3F)C[C@H](F)C2)nn1 [3-[6-({[3-fluoro-1-(3-fluoro(2-pyridyl))cyclobutyl]methyl}ami-no)pyridazin-3-yl]-2-methoxybenzamide] | D (D=>20 uM)
CNC(=O)c1cc2cc(-c3ccc(NC[C@]4(c5ncccc5F)C[C@H](F)C4)nn3)ccc2[nH]1 [{5-[6-({[3-fluoro-1-(3-fluoro(2-pyridyl))cyclobutyl]methyl}ami-no)pyridazin-3-yl]indol-2-yl}-N-methylcarboxamide] | A (A=<1 uM)
O=C(NCCF)c1ccc(F)c(-c2ccc(NC[C@]3(c4ncccc4F)C[C@H](F)C3)nn2)c1 [N-(2-fluoroethyl){4-fluoro-3-[6-({[3-fluoro-1-(3-fluoro(2-pyridyl))cyclobutyl]methyl}ami-no)pyridazin-3-yl]phenyl}carboxamide] | B (B=1-10 uM)
O=C(Nc1nccs1)c1ccc(NCC2(c3ncccc3F)CCC2)nn1 [[6-({[(3-fluoro(2-pyridyl))cyclobutyl]methyl}ami-no)pyridazin-3-yl]-N-(1,3-thiazol-2-yl)carboxamide] | A (A=<1 uM)
